Values after ≈ are worked out from the molar mass of the structure shown. “Also recorded” adds a separate entry of the source. Like-named read-outs stand apart in the source and are kept apart here.
How the values were obtained:
[1] = tested on: intracellular Mtb-GFP (Mtb-Erdman) in MRC-5 fibroblasts; test: microbe, parasite or virus in culture; assay type: cell-based, Mycobacterium tuberculosis; details: for activity in ex vivo assay: intracellular (ex vivo) assay; for IC50: Mycobacterium tuberculosis, ERDMAN, MRC5
[2] = tested on: Mtb H37Rv; test: microbe, parasite or virus in culture; assay type: cell-based, Mycobacterium tuberculosis; details: for IC50: Mycobacterium tuberculosis, H37RV
[3] = tested on: Mtb-Erdman infected MRC-5 human lung fibroblasts; test: Fibroblast survival assay (HTS): protection of MRC-5 lung fibroblasts from Mtb-induced cytotoxicity; assay type: cell-based, Mycobacterium tuberculosis; details: for activity in fibroblast survival assay: concentrations up to 50 μM, FIG. 1
[4] = Drug quantification in 7H9 broth (LC/MS); assay type: physicochemical; details: 500 nM, 48 hours, FIG. 3C
Method: (§1) Quantification in 7H9 broth was performed with 500 nM of LPZ, acetonitrile was added in a 1:1 ratio at given time-points followed by spinning and shock freezing. The UPLC separation was done on an Agilent 1290 Infinity LC system including the 1290 Infinity LC system Binary Pump with integrated degasser, the High Performance Autosampler and a thermostatted column compartment. The samples (2 μL) were injected into a Zorbax Extend-C18 (2.1×50 mm, 1.8 μm) analytical column operated at 40° C., using H2O—HCOOH 0.1% and CH3CN—HCOOH 0.1% as mobile phases A and B (2 to 100% B in 5 min) at a flow rate of 0.4 mL/min. The UPLC system was interfaced with a 6530 Accurate-Mass Q-TOF LC/MS system (Agilent Technologies). Electrospray-ionisation MS data were acquired in the positive ionization mode, in the mass range m/z 100-1000 (2 spectra/s). Experimental parameters were set as follows: Fragmentor: 190V, Vcap: 3500 V, gas temperature: 300° C., sheath gas temperature: 350° C. External calibration was carried out with a solution of ESI_L (Agilent). Data were processed using MassHunter.
In mycobacterial growth medium, the results were markedly different. A rapid decay of LPZ was also observed confirming the instability of this drug. However, though LPZS was detectable in increasing amounts over time, it was not the major product of LPZ decay (FIG. 3C). […]

[5] = tested on: intracellular Mtb-GFP in RAW264.7 macrophages; test: microbe, parasite or virus in culture; assay type: cell-based; details: Mycobacterium tuberculosis, FIG. 2B, read-out: IC50 (growth of intracellular bacteria)
[6] = Intracellular drug quantification in MRC-5 cells (LC/MS); assay type: in vitro ADME, human; details: MRC-5 cells exposed to 2 μM, 48 hours
Method: For intracellular drug quantification, 20000 MRC-5 cells were seeded in 96 well plates and exposed to 2 μM of LPZ. At given time-points, cells were extensively washed with PBS and lysed with 0.1% Triton X-100 in PBS and acetonitrile (1:1 ratio). After spinning at 15,000 g at 4° C., samples were shock frozen in liquid nitrogen and stored at −80° C. for MS.
as §1, with “Experimental parameters were set as follows: Fragmentor: 190V, Vcap: 3500 V, gas temperature: 300° C., sheath gas temperature: 350° C. External calibration was carried out with a solution of ESI_L (Agilent). Data were processed using MassHunter.” left out
The intracellular LPZ and possible metabolites were quantified at different time-points over a period of 48 hours using LC/MS.

[7] = tested on: Corynebacterium glutamicum; test: REMA MIC; assay type: cell-based
[8] = tested on: Candida albicans; test: REMA MIC; assay type: cell-based
[9] = tested on: Mtb strains; test: MIC, summary statement for Mtb strains; assay type: cell-based; details: Mycobacterium tuberculosis; Mtb strains such as H37Rv, Erdman and HN878 (Table 3)
[10] = tested on: Pseudomonas aeruginosa; test: REMA MIC; assay type: cell-based
[11] = tested on: Mycobacterium abcessus 2005-0524; test: REMA MIC; assay type: cell-based; details: 20050524
[12] = tested on: Enterococcus faecalis; test: REMA MIC; assay type: cell-based
[13] = tested on: Mycobacterium tuberculosis H37Rv; test: REMA MIC; assay type: cell-based
[14] = tested on: Mycobacterium tuberculosis Erdman; test: REMA MIC; assay type: cell-based
[15] = tested on: Mycobacterium tuberculosis HN878 (Beijing strain); test: REMA MIC; assay type: cell-based
[16] = tested on: non-Mtb strains; test: MIC, summary statement for non-Mtb strains; assay type: cell-based; details: other non-Mtb strains such as Mycobacterium abcessus 2005-0524 or Escherichia coli
[17] = tested on: Staphylococcus aureus; test: REMA MIC; assay type: cell-based
[18] = tested on: Mycobacterium massiliense 2005-0484; test: REMA MIC; assay type: cell-based; details: Mycobacteroides abscessus, 20050484
[19] = tested on: Mtb-H37Rv; assay type: in vivo, BALB/c mice; details: 300 mg/kg twice a day for 9 days, vs vehicle TPGS, FIG. 4
[20] = tested on: Micrococcus Luteus; test: REMA MIC; assay type: cell-based
[21] = tested on: Bacillus subtilis; test: REMA MIC; assay type: cell-based
[22] = set-up: species or system BALB/c mice; details: BALB/c, mouse, in vivo, 0.5 h
Method: For pharmacokinetic studies BALB/c mice (18-20 g) were given 100 mg/kg or 300 mg/kg LPZS in 20% TPGS (D-α tocopheryl polyethylene glycol 1000 succinate). At given time-points, blood from 3 mice was taken and, after spinning, serum was treated with acetonitrile (1:4 ratio). After a second spin, supernatants were frozen for LC/MS experiments.
BALB/c mice were given 100 mg/kg or 300 mg/kg of LPZS by oral gavage and serum levels were determined after 0.5, 1, 2, 4, 8 and 24 hours (FIG. 5).

[23] = tested on: Listeria monocytogenes; test: REMA MIC; assay type: cell-based
[24] = doses as high as 300 mg/kg twice a day
[25] = tested on: Escherichia coli; test: REMA MIC; assay type: cell-based
[26] = tested on: Mycobacterium marinum M; test: REMA MIC; assay type: cell-based
[27] = tested on: Mycobacterium vaccae ATCC 15483; test: REMA MIC; assay type: cell-based; details: Mycolicibacterium vaccae, ATCC15483
[28] = target: human proton pump (Homo sapiens, UniProt P20648); details: cited from earlier work
human proton pump, sequence (P20648 whole entry): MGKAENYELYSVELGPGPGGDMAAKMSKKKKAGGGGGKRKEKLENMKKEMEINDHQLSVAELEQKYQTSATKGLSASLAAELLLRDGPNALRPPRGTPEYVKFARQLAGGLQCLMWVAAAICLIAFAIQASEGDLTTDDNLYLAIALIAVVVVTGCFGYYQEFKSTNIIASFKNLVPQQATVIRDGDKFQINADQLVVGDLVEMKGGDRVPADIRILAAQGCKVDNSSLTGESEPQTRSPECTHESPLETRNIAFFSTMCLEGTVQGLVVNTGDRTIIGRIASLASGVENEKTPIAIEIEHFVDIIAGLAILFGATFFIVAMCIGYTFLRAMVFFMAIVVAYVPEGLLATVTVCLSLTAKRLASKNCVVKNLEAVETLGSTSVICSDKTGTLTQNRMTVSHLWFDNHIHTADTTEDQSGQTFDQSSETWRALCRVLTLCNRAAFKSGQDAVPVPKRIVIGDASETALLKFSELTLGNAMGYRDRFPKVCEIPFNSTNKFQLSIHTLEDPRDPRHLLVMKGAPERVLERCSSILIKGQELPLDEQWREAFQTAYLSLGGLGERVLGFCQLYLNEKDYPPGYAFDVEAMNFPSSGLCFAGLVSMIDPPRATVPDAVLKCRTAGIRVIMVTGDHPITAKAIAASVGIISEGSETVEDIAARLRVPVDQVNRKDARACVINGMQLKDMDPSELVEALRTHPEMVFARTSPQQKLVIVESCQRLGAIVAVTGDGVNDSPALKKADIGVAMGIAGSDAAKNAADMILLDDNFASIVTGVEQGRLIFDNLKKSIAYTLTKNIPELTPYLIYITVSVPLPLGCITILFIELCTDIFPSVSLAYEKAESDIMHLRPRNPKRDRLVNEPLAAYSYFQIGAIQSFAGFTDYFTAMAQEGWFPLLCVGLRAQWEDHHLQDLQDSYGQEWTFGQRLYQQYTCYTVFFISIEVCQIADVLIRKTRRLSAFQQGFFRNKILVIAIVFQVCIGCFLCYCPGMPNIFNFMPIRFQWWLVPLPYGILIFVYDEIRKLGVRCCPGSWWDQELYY
human proton pump, sequence (P51164 whole entry partner): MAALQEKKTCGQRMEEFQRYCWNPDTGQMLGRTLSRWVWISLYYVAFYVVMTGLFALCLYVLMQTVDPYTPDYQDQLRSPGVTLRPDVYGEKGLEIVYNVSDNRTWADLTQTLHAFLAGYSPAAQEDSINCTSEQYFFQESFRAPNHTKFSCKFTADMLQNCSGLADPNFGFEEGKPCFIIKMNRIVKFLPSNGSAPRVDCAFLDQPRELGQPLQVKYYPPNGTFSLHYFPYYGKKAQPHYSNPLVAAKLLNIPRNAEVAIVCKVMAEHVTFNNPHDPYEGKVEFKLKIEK

[29] = tested on: Salmonella typhimurium; test: REMA MIC; assay type: cell-based; details: Salmonella enterica
[30] = tested on: THP-1; assay type: cell-based
Text: (§2) Cytotoxicity of LPZS on THP1 macrophages, human liver hepatoma cells (HuH7-D12), human lung epithelial carcinoma cells (A549) and human embryonic liver cells (HepG2) (Table 5).

[31] = tested on: Mycobacterium smegmatis mc2155; test: microbe, parasite or virus in culture; assay type: cell-based; details: Mycolicibacterium smegmatis
[32] = tested on: Pseudomonas putida; test: REMA MIC; assay type: cell-based
[33] = tested on: Corynebacterium diphtheriae; test: REMA MIC; assay type: cell-based
[34] = tested on: Mycobacterium bolletii 1999-0888; test: REMA MIC; assay type: cell-based; details: Mycobacteroides abscessus, 19990888
[35] = tested on: HepG2; assay type: cell-based, human
Text: as §2

[36] = tested on: Mycobacterium avium; test: REMA MIC; assay type: cell-based
[37] = table values in μM or words, read-out: IC50 against Mtb in broth
[38] = table values in μM or words, read-out: IC50 intracellular

COc1ccnc(C[S+]([O-])c2nc3ccc(OC(F)F)cc3[nH]2)c1OC (stereo not shown) [Pantoprazole]
activity in ex vivo assay [1]: inactive
activity in in vitro assay [2]: inactive
activity in fibroblast survival assay [3]: inactive

Cc1c(SCCN2CCc3ccccc3C2)ccnc1CSc1nc2ccccc2[nH]1
IC50 [2, 37]: 2.7 µM

COc1ccc2[nH]c([S+]([O-])Cc3ncc(C)c(OC)c3C)nc2c1 (stereo not shown) [Omeprazole]
activity in ex vivo assay [1]: inactive
activity in in vitro assay [2]: inactive
activity in fibroblast survival assay [3]: inactive

COCCCOc1ccnc(CSc2nc3ccccc3[nH]2)c1C [Rabeprazole sulfide]
IC50 [1, 38]: 3 µM
IC50 ([2]; read-out: IC50 (Mtb in broth)): 5 µM
IC50 [2, 37]: 5 µM

COc1ccnc(C[S+]([O-])c2nc3cc(OC(F)F)ccc3[nH]2)c1OC.[Na+] (stereo not shown)
IC50 intracellular ([1]; table values in μM or words): Inactive
IC50 against Mtb in broth ([2]; table values in μM or words): Inactive

Cc1c(OCC(F)(F)F)ccnc1CS(=O)(=O)c1nc2ccccc2[nH]1
IC50 intracellular ([1]; table values in μM or words): Inactive
IC50 against Mtb in broth ([2]; table values in μM or words): Inactive

Cc1c(OCC(F)(F)F)ccnc1C[S+]([O-])c1nc2ccccc2[nH]1 (racemic) [LPZ, (RS)-2-([3-méthyl-4-(2,2,2-trifluoroéthoxy)pyridin-2-yl]méthylsulfinyl)-1H-benzimidazole]
IC50 ([1]; MRC-5 cells, FIG. 2A, read-out: IC50 (Mtb-GFP signal)): 1.47 µM
IC50 [1, 38]: 1.47 µM
decay in mycobacterial growth medium [4]: rapid decay
IC50 [5]: 2.2 µM
IC50 ([2]; read-out: IC50 (Mtb in broth)): 32.8 µM
IC50 ([2]; read-out: IC50 (inhibit Mtb)): < 40 µM
IC50 [2, 37]: 32.8 µM
fibroblast survival / protection against Mtb induced killing [3]: supported fibroblast survival at rates comparable to well established anti-mycobacterial drugs such as Rifampicin and Moxifloxacine; also recorded: inhibits the growth of Mtb as well as Rifampicin or Moxifloxacine
intracellular decay [6]: rapid intracellular decay

Cc1c(Cl)ccnc1CSc1nc2ccccc2[nH]1 [4-Desmethoxypropoxyl-4-chloro rabebrazole sulfide]
IC50 [1, 38]: 6 µM
IC50 ([2]; read-out: IC50 (Mtb in broth)): 6 to 12 µM
IC50 [2, 37]: 6 to 12 µM

5-hydroxy Lansoprazole potassium
activity in ex vivo assay [1]: inactive
activity in in vitro assay [2]: inactive

Cc1c(OCC(F)(F)F)ccnc1CSc1nc2ccccc2[nH]1 [LPZS, Lanzoprazole sulfide]
MIC [7]: > 100 µM
MIC [8]: > 100 µM
MIC [9]: < 2 µM
MIC [10]: > 100 µM
MIC [11]: > 100 µM
MIC [12]: > 100 µM
MIC [13]: 1.13 µM (≈ 0.399 µg/mL)
MIC [14]: 1.21 µM (≈ 0.428 µg/mL)
IC50 ([1]; read-out: IC50 (intracellular activity)): 0.59 µM
IC50 ([1]; table values in nM, read-out: IC50 intracellular): 0.59 µM
MIC [15]: 1.74 µM (≈ 0.615 µg/mL)
MIC [16]: > 100 µM
MIC [17]: > 100 µM
MIC [18]: > 100 µM
bacterial burden (cfu) in the lungs [19]: significantly reduced
MIC [20]: > 100 µM
MIC [21]: > 100 µM
IC50 ([2]; read-out: IC50 (Mtb in broth)): 0.46 µM
IC50 ([2]; table values in nM, read-out: IC50 against Mtb in broth): 0.46 µM
concentration in blood relative to Cmax [22]: 100 % of Cmax
MIC [23]: > 100 µM
signs of toxicity in mice [24]: no signs of toxicity
MIC [25]: > 100 µM
MIC [26]: 100 µM (≈ 35.3 µg/mL)
MIC [27]: > 100 µM
activity towards the human proton pump [28]: no activity
MIC [29]: > 100 µM
TD50 [30]: 75 µM
TD99 [30]: >100 µM
MIC [31]: > 100 µM
MIC [32]: > 100 µM
MIC [33]: > 100 µM
MIC [34]: > 100 µM
TD50 [35]: 25 µM
TD99 [35]: 100 µM
MIC [36]: > 100 µM

FC(F)(F)Oc1ccc(C2CCN(c3ccc(CSc4nc5ccccc5[nH]4)cc3)CC2)cc1
IC50 [2, 37]: ~48 µM

COc1ccc2[nH]c(SCc3ncc(C)cc3C)nc2c1
IC50 intracellular ([1]; table values in μM or words): inactive
IC50 against Mtb in broth ([2]; table values in μM or words): inactive

COCCCOc1ccnc(C[S+]([O-])c2nc3ccccc3[nH]2)c1C (stereo not shown) [Rabeprazole sodium]
IC50 [1, 38]: 6 µM
IC50 ([2]; read-out: IC50 (Mtb in broth)): 25 µM
IC50 ([2]; read-out: IC50 (inhibit Mtb)): < 40 µM
IC50 [2, 37]: 25 µM

Cc1c(OCC(F)(F)F)ccnc1C[S+]([O-])c1nc2ccccc2[nH]1 (stereo not shown) [R-Lansoprazole]
IC50 [1, 38]: 1.47 µM
IC50 ([2]; read-out: IC50 (inhibit Mtb)): < 40 µM
IC50 [2, 37]: 32.8 µM

COc1ccc2[nH]c([S+]([O-])Cc3ncc(C)c(OC)c3C)nc2c1 (stereo not shown) [drawing 26]
IC50 intracellular ([1]; table values in μM or words): Inactive
IC50 against Mtb in broth ([2]; table values in μM or words): Inactive

— patent US10137116B2, “Benzimidazole sulfide derivatives for the treatment or prevention of tuberculosis” (priority 2015, dated 2018)
